Data published in PMC9820303, “^αN-Acetyl β-Endorphin Is an Endogenous Ligand of σ1Rs That Regulates Mu-Opioid Receptor Signaling by Exchanging G Proteins for σ2Rs in σ1R Oligomers” (International Journal of Molecular Sciences, 2022).

System: CD1 mice (wild-type and σ1R−/−)
Test: Supraspinal analgesia, warm water (52 °C) tail-flick test
Format: in vivo, mouse
Settings: for effect of C-terminal peptides on β-End 1–31 and morphine analgesia: icv 20 min before 0.5 nmol β-End 1–31 or 10 nmol morphine icv; for effect on β-End 1–31 analgesia, nonphysiological fragments: 1 nmol icv 20 min before 0.5 nmol β-End 1–31 icv, 6 mice; for effect on DAMGO analgesia: icv 20 min before DAMGO (0.1 nmol icv), evaluated 15 min after DAMGO; for effect on analgesia of the DOR agonists DPDPE and D-Ala^2 Deltorphin II: icv 20 min before DPDPE (10 nmol) or D-Ala2-deltorphin II (10 nmol) icv; for effect of exogenous σ1R ligands on β-End 1–31 analgesia: 3 nmol icv 20 min before 0.5 nmol β-End 1–31 icv
Experimental: Upper panel: the withdrawal thresholds of the contralateral and ipsilateral paws were measured before (indicated as 0) and up to 14 days after surgery. […] Middle panel: 0.3 and 3 nmol of ^αN-acetyl β-End 1–31 were administered icv 7 days after surgery, and the nociceptive threshold was evaluated at the indicated postinjection intervals (in minutes). For every time interval studied in min or days, * indicates a significant difference from the group that received saline instead of ^αN-acetyl β-End 1–31; ϕ significant difference from the effect of 3 nmol ^αN-acetyl β-End 1–31. […] All data are presented as the mean ± SD of six mice. ANOVA followed by the Holm–Sidak multiple comparisons test, p < 0.05, 1-β > 0.80. […] Upper panel: wild-type mice were injected icv with saline, ^αN-acetyl β-End 1–31 (1 nmol/mouse) or the combination of the σ1R agonist PPCC (3 nmol/mouse) plus ^αN-acetyl β-End 1–31 20 min before morphine and β-End 1–31. Analgesia was evaluated by the warm water (52 °C) tail-flick test at the interval postinjection corresponding to their peak effect, 30 min. Lower panel: σ1R^−/− mice received 1 nmol ^αN-acetyl β-End 1–31, 20 min before morphine and β-End 1–31 and analgesia was evaluated as described above. Eight mice were used per strain and treatment. * Significant difference with respect to the group treated with morphine or β-End 1–31 alone. ANOVA followed by the Holm–Sidak multiple comparisons test, p < 0.05, 1-β > 0.80.
Figure 3 Effect of physiological β-End 1–31 derivatives on morphine and β-End 1–31 analgesia. […] (A) The mice were icv-injected with 25 nmol of β-End 1–26, β-End 1–27 and ^αN-acetylated derivatives 20 min before icv 0.5 nmol β-End 1–31. Analgesia was determined at the indicated postinjection intervals. (B) CD1 wild-type and σ1R^−/− mice were administered C terminal peptide sequences 27–31, 28–31 and 30–31 of β-End 1–31 through an icv injection 20 min before 0.5 nmol of the whole β-End 1–31 and morphine (10 nmols) were injected icv. […] (C) A series of exogenous σ1R ligands (3 nmol) were icv-injected 20 min before 0.5 nmol β-End 1–31 was administered via icv in wild-type mice. The σ1R antagonist S1RA was also icv-injected before β-End 1–31 was administered icv in σ1R^−/− mice. (D) The effects of several doses of S1RA on morphine analgesia were studied in wild-type and σ1R^−/− mice. […] ANOVA followed by the Holm–Sidak multiple comparisons test, p < 0.05, 1-β > 0.80.
(A) The effect of σ1R deletion on opioid- and cannabinoid-induced analgesia. Analgesic compounds were icv-injected into wild-type and σ1R^−/− mice, and analgesia was evaluated 30 min after morphine (3 nmol) and β-End 1–31 (0.5 nmol), 15 min after DAMGO (0.1 nmol) and DPDPE (10 nmol) and 10 min after WIN55,212-2 (15 nmol). The bars are the mean ± SD of eight mice per strain and treatment. * Significant difference with respect to the effect of the analgesic substance in the wild-type group. ANOVA followed by the Holm–Sidak multiple comparisons test, p < 0.05, 1-β > 0.80. (B) Coprecipitation of G proteins with MORs. Solubilized mouse brain cortical membranes enriched in synaptosomes (SBM) from CD1 wild-type (WT) and σ1R^−/− mice were solubilized with sonication in the presence of 1% NP-40. Non-soluble debris was eliminated, and the samples were then incubated overnight at 4 °C with affinity-purified biotinylated IgGs that were raised against extracellular regions of the MOR. Protein complexes that were immunoprecipitated with streptavidin agarose were extensively washed and then resolved by SDS-PAGE.

For “YKKGE [β-End 27–31, C-terminal pentapeptide of β-End 1–31]”, the “effect of C-terminal peptides on β-End 1–31 and morphine analgesia” value (wild-type mice) was “reduced the analgesic activity of β-End 1–31 and morphine”.
In the case of “β-End 22–31: nonphysiological C-terminal sequence of β-End 1–31 (IIKNAYKKGE; Beta-endorphin; UniProt P01189 258-267, looked up, fragment)”, the “effect on β-End 1–31 analgesia, nonphysiological fragments” value was “reduced β-End 1–31 analgesia”.
For “^αN-acetyl β-End 1–31: β-End 1–31 acetylated at N terminal Y1, α position”, the “effect on morphine and β-End 1–31 analgesic potency, 1 pmol” value (1 pmol icv 30 min before morphine and β-End 1–31, wild-type mice) was “significant reductions in their analgesic potency”, the “effect on DAMGO analgesia” value was “enhanced DAMGO analgesia” and the “effect on analgesia of the DOR agonists DPDPE and D-Ala^2 Deltorphin II” value was “neither ^αN-acetyl β-End 1–31 nor S1RA altered the analgesic effects”. The “icv dose at which the regulatory effects on analgesia reached a maximum” value (icv, persisted at 1 pmol or 1 nmol) was 1 to 10 fmols, the “effect on DAMGO and clonidine analgesia” value (increasing icv doses 20 min before DAMGO (0.1 nmol) or clonidine (150 nmol) icv, wild-type mice) was “increased” and the “effect on morphine and β-End 1–31 analgesia in σ1R−/− mice” value (σ1R−/− mice, icv before the opioids) was “not altered”.
In the case of COC(=O)[C@]1(c2ccc(C)cc2)C[C@@H]1CN1CCC(O)(c2ccccc2)CC1 [PPCC, (1R,2S/1S,2R)-2-[4-hydroxy-4-phenylpiperidin-1-yl)methyl]-1-(4-methylphenyl) cyclopropanecarboxylate, reference compound], the “effect of exogenous σ1R ligands on β-End 1–31 analgesia” value (from here on “effect of exogenous σ1R ligands”) (wild-type mice) was “did not alter the effect of β-End 1–31”, the “effect on the antagonist activity of β-End C-terminal peptides” value (PPCC 3 nmol icv 10 min before the β-End C-terminal peptides) was “prevented” and the “effect on the impairment of morphine and β-End 1–31 analgesia by ^αN-acetyl β-End 1–31” value (PPCC 3 nmol/mouse icv plus ^αN-acetyl β-End 1–31, wild-type mice) was “prevented the impairing effects”.
“β-End 6–31: β-End 1–31 lacking the N-terminal met-enkephalin 1–5 sequence (TSEKSQTPLVTLFKNAIIKNAYKKGE; Beta-endorphin; UniProt P01189 242-267, looked up, fragment)” was tested, and the “effect on β-End 1–31 analgesia, nonphysiological fragments” value was “not produced”.
With “KKGE [β-End 28–31, C-terminal tetrapeptide of β-End 1–31]” the “effect of C-terminal peptides on β-End 1–31 and morphine analgesia” value (wild-type mice) was “reduced the analgesic activity of β-End 1–31 and morphine”.
For Br.Br.CN(C)CCN(C)CCc1ccc(Cl)c(Cl)c1 [BD1047, N′-[2-(3,4-dichlorophenyl)ethyl]-N,N,N′-trimethylethane-1,2-diamine;dihydrobromide, reference compound], the “effect of exogenous σ1R ligands” value (wild-type mice) was “diminished”.
With Cl.O=C(OCCN1CCOCC1)C1(c2ccccc2)CCCCC1 [PRE084, 2-(4-morpholinethyl)-1-phenylcyclohexanecarboxylate hydrochloride, reference compound] the “effect of exogenous σ1R ligands” value (wild-type mice) was “did not alter the effect of β-End 1–31”.
Cc1cc(OCCN2CCOCC2)nn1-c1ccc2ccccc2c1 [S1RA] was tested, and the “effect of exogenous σ1R ligands” value (wild-type mice) was “diminished”, the “effect on morphine analgesia, 3 nmol” value (3 nmol icv, wild-type mice) was “produced the maximum increase” and the “effect on morphine analgesia, 10 nmol” value (10 nmol icv, wild-type mice) was “barely altered morphine effects”. The “effect on DAMGO analgesia” value was “enhanced DAMGO analgesia”, the “effect on analgesia of the DOR agonists DPDPE and D-Ala^2 Deltorphin II” value was “neither ^αN-acetyl β-End 1–31 nor S1RA altered the analgesic effects” and the “effect on morphine analgesia” value (icv before morphine, wild-type mice) was “enhanced morphine analgesia”.
